Like-named read-outs stand apart in the source and are kept apart here.
How the values were obtained:
[1] = test system: RBL-2H3 cells; assay: Repression of liberation of mediators (serotonin, histamine, arachidonic acid) from RBL-2H3 cells; type: cell-based, rat
Excerpt: [Study on activity to repress the liberation of various mediators from rat basophilic leukemic cell strain (RBL-2H3) and activity to repress thyrosine kinase]
The cells of RBL-2H3, one species of rat cell line, carry out not only the liberation of histamine and serotonin but also the formation and liberation of prostaglandins, TNFα, etc., i.e. inflammatory mediators, owing to the specific antigen of the IgE antibody bound to the IgE receptor. In the present test system, therefore, the cells were marked with serotonin and arachidonic acid labeled in advance with [^3H] and cultured in the presence of a compound under test and in the absence thereof and the amounts of the mediators liberated in the culture medium were measured. Thus, the given compounds were tested for activity to repress the liberation of various mediators. The TNFα was determined by means of bioassay.

[2] = test system: TNFα; assay: Repression of formation and liberation of TNFα (bioassay); type: cell-based, rat; details: at the same concentration (12 µM)
[3] = test system: phospholipase C; assay: Repression of activation of phospholipase C, intracellular substrate of the thyrosine kinase; type: cell-based; details: at the same concentration (12 µM)
[4] = test system: Jurkat cells (T-cells); assay: Thyrosine kinase selectivity in Jurkat cells (antigenic stimulus); type: cell-based
[5] = Rattus norvegicus, RBL-2H3 cells, [3H]-labelled serotonin, read-out: IC50 (µM) in liberation of serotonin from RBL-2H3 cells

**Q.** Cc1ccc2c(=O)c3ccccc3n(CCCN)c2c1C.O=C(O)C(=O)O [Example 3, 3,4-Dimethyl-10-(3-aminopropyl)-9-acridone oxalate] was tested. Which IC50 ([1]; Rattus norvegicus, RBL-2H3, due to the antigenic stimulus, read-out: IC50 value, liberation of arachidonic acid from the RBL-2H3 cells) did it give?
**A.** 12 µM

**Q.** And the IC50 ([1]; Rattus norvegicus, RBL-2H3, due to the antigenic stimulus, read-out: IC50 value, liberation of histamine from the RBL-2H3 cells)?
**A.** 12 µM

**Q.** What about the IC50 ([1]; Rattus norvegicus, RBL-2H3, due to the antigenic stimulus, read-out: IC50 value, liberation of serotonin from the RBL-2H3 cells) of the same compound?
**A.** 12 µM

**Q.** And the “formation and liberation of TNFα” value [2]?
**A.** repressed

**Q.** What about the “activation of phospholipase C” value [3] of the same compound?
**A.** repressed

**Q.** What about the “activity to repress the antigenic stimulus in the Jurkat cells” value ([4]; Jurkat cells) of the same compound?
**A.** absolutely no activity

**Q.** And the “activity to repress such thyrosine kinases as p561ck and fyn” value ([4]; concluded from the Jurkat cell test)?
**A.** no activity

**Q.** Which IC50 ([1]; RBL-2H3 cells, [3H]-labelled serotonin, read-out: IC50 (µM) in liberation of serotonin from RBL-2H3 cells) does the source give for “3,4-Dimethyl-10-[3-(2-imidazoylmethyl)aminopropyl]-9 acridone [Example 32]” here?
**A.** 0.6 µM

**Q.** Cc1ccc2c(=O)c3ccccc3n(CCCN)c2c1C [Example 2, 3,4-Dimethyl-10-(3-aminopropyl)-9-acridone] was tested. Which IC50 ([1]; Rattus norvegicus, RBL-2H3, RBL-2H3 cells, [3H]-labelled serotonin, read-out: IC50 (µM) in liberation of serotonin from RBL-2H3 cells) did it give?
**A.** 6 µM

**Q.** For Cc1ccc2c(=O)c3ccccc3n(CCCNCc3ccccc3)c2c1C [Example 19, 3,4-Dimethyl-10-(3-benzylaminopropyl)-9-acridone], which IC50 [1, 5] is on record?
**A.** 3 µM

**Q.** For Cc1c(F)cc2c(=O)c3ccccc3n(CCCN)c2c1C [Example 1, 2-Fluoro-3,4-dimethyl-10-(3-aminopropyl)-9-acridone], which IC50 [1, 5] is on record?
**A.** 1.7 µM

Source: patent EP0877020A1, “ACRIDONE DERIVATIVE” (Eisai Co., Ltd., priority 1995, dated 1997)
